Counter-ions that a name gives are not always drawn. Like-named read-outs stand apart in the source and are kept apart here.
Assays:
[1] = molecular target: T1, RGS4(WT) (Rattus norvegicus, UniProt P49799); assay: Malachite green steady-state GAP assay, RGS4(WT); type: biochemical; details: for Mean absorbance at 642 nm, positive control: 10 µM final compound
T1 construct: fused to the N-terminus of an RGS4 construct containing amino acids 51–205; 10× His tag (N, cleaved yes); made in house; host or cells: E. coli BL21-DE3
T1 sequence (P49799 51-205): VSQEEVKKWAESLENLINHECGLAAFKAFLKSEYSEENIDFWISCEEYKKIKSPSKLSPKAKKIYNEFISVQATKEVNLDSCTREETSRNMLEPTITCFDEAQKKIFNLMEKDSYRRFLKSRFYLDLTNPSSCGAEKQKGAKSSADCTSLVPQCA
Protocol: Stock solutions of each of the 3 components of the developing solution were prepared, which are stable for long-term storage. Malachite solution was prepared by first diluting concentrated sulfuric acid 1∶5 in distilled water. Once the solution cooled to 25°C, malachite solution was prepared by dissolving 0.44 g of malachite green oxalate (Alfa Aesar; Ward Hill, MA) in 360 mL diluted acid and stored at 25°C. Molybdate solution, containing 7.5% ammonium molybdate tetrahydrate (Alfa Aesar; Ward Hill, MA), was prepared in distilled water and stored at 4°C. Tween-20 solution, used to maintain solubility of the phosphate-molybdate-malachite complex, was prepared as 11% (v/v) Tween-20 in distilled water. On the day of use, 2.5 mL molybdate solution and 0.2 mL Tween-20 solution were added to 10 mL of malachite solution and mixed quickly to avoid precipitation of malachite. The final ratio of the Developing Solution (DS) was 50∶12.5∶1 (malachite:molybdate:Tween-20). The peak absorbance was determined by a 2 nm step wavelength scan, using 10 µM Na3PO4 at pH 7.5 as the negative control.
The malachite green assay involves 5 components, with a 1 min spin at 100×g between each addition. For time-course experiments, the first component was 10 µL Malachite Green Assay Buffer (MGB; 50 mM HEPES at pH 7.5, 100 mM NaCl, 5 mM EDTA, 10 mM MgCl2, 0.01% lubrol) into a clear 384-well plate (ThermoFisher Scientific; Waltham, MA) using a MultiDrop dispenser (PerkinElmer; Waltham, MA). The second component dispensed was 10 µL of a 4× stock of RGS4, typically 200 nM to 1.6 µM with the target final concentration of 50 nM to 400 nM, diluted in MGB. After a 30 min incubation, 10 µL of the third component, 4× stock of Gαi diluted in MGB, was dispensed (typically between 4 µM and 80 µM with a desired final concentration 1 µM to 20 µM). After a minimum of 5 min incubation, 10 µL of the fourth component, 4× GTP diluted in MGB, was added at 10 minute intervals from 1–110 minutes. The 0 min time point was excluded due to amount of time required to proceed from GTP addition to quenching with DS. 4× GTP concentrations varied between 0.2 mM and 2.4 mM, with a target final concentration of 50 µM to 600 µM. To terminate the reaction, 10 µL of DS was added to each well using a Microlab Star liquid handling robot (Hamilton Robotics; Reno, NV), to achieve a final ratio 4∶1 (sample:developing solution). Following the spin, the plate was incubated for 25 min before being read at 642 nm for absorbance using an EnVision plate reader (PerkinElmer; Waltham, MA). RGS8 was evaluated similarly to as described for RGS4, with 4× stock concentrations from 20 nM and 800 nM. For each time-course, corresponding GTP only wells were included to account for spontaneous hydrolysis of GTP over time.
(§1) Malachite green compound activity and Z-factor analysis conducted in 384-well plates utilized optimized parameters as discerned from the time-course experiments. 10 µL of 4× compound or MGB was dispensed into appropriate wells. For single point assay, 160 µM compound was used, and for dose-response assays a series of ½ log dilutions from 100 µM final to 316pM final was used. 10 µL of the optimized 4× RGS4 concentration, 0.8 µM in MGB, was dispensed into all wells. After a spin down at 100×g for 1 min, the assay plate was incubated at 25°C for 30 min. 10 µL of the optimized Gαi concentration, 20 µM in MGB, was dispensed to each well and incubated at 25°C for 5 min. 10 µL of the optimized 4× GTP, 600 µM in MGB, was then added to the samples. After spinning the samples down at 100×g for 1 min, the samples were incubated at 25°C for 75 min. The samples were then stamped with 10 µL of DS and incubated for 25 min before reading absorbance at 642 nm.
1536-well Z-factor analysis and compound library screen were accomplished largely as described for 384-well plates. Initial screen and Z-factor determination was performed in a final concentration of 5.5% dimethylsulfoxide. […]

[2] = molecular target: RGS4(Δ7) mutant (Rattus norvegicus, UniProt P49799, C132A/C148A/C183A/C197A/C204A/C71A/C95A); assay: Malachite green steady-state GAP assay, cysteine-null RGS4(Δ7) counter screen; type: biochemical
Source text: Rat RGS4, sharing 97% sequence identity with human RGS4, and the cysteine to alanine mutant were expressed as fusion proteins of maltose binding protein (MBP), a 10× His tag, and a TEV protease recognition site fused to the N-terminus of an RGS4 construct containing amino acids 51–205, in the vector pMALC2H10T in BL21-DE3 E. coli (Stratagene; Santa Clara, CA). The single cysteine-null Δ51-RGS4 construct was generated by site-directed mutagenesis as described previously. Expression and purification were performed as described previously. Purified protein was incubated with TEV protease at a molar ratio of 10∶1(fusion protein:TEV protease) overnight at 4°C. The cleaved Δ51-RGS4 was then isolated by purification over an ANX column (GE Healthcare; Fairfield, CT) in 50 mM HEPES at pH 6.8 and 50 mM NaCl. The flow through, containing the ∼99% Δ51-RGS4 as determined by SDS-PAGE gel, was then collected and concentrated using a YM-10 centrifugal concentrator (Millipore; Billerica, MA). The concentration of Δ51-RGS4 was calculated based on the absorbance at 280 nm utilizing a Take-3 plate (Biotek; Winnoski, VT) in a Synergy 2 plate reader (Biotek; Winnoski, VT).
as §1
Data was analyzed using Prism analysis software (Graphpad Software; La Jolla, CA). Initial malachite green assay optimization was accomplished by comparing the fit of both straight line and hyperbolic functions. The fit that mostly closely resembled the data was used to represent the data. IC50 values for each compound were determined by fitting the data to a sigmoidal curve, which was used to calculate the IC50 value.

[3] = design: method as in PMID 20700722, PMID 21088503; details: rodent models; cited from earlier work
[4] = malachite green assay, RGS4(Δ7) mutant, concentration-response, read-out: IC50 against RGS4(Δ7)

RGS4(Δ7) mutant, sequence (P49799 51-205 C71A/C95A/C132A/C148A/C183A/C197A/C204A limits assumed): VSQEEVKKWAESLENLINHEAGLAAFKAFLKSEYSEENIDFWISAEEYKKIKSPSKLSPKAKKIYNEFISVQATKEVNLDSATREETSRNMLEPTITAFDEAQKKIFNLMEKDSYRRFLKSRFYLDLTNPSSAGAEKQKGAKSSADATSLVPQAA

SMILES	IC50 [2, 4] [µM]	IC50 [2] [µM]	IC50 [1] [µM]	Inhibition of RGS4(Δ7) (in words) ([2]; malachite green assay)	Inhibition of RGS4 (in words) ([1]; malachite green assay)	also measured
Cc1ccc(-n2sc(=O)n(Cc3ccc(F)cc3)c2=O)cc1 [CCG-50014, reference compound]	–	–	–	–	–	Mean absorbance at 642 nm, positive control ([1]; 384-well plate, 192 wells, negative control (buffer) mean 1.74): 0.92; Mean absorbance at 642 nm, positive control ([1]; 1536-well plate, 5.5% DMSO, 128 wells, negative control (buffer) mean 0.67): 0.30
C[n+]1cc2c3c(ccc2c2ccc4cc5c(cc4c21)OCO5)OCO3 [UI-5, sanguinarium sulfate]	454	–	–	–	–	IC50 ([1]; malachite green assay, 200 nM RGS4, concentration-response, read-out: IC50 against RGS4(WT)): 126 µM
CC1=C(O)C(=O)C=C2C1=CC=C1[C@@]2(C)CC[C@@]2(C)[C@@H]3C[C@](C)(C(=O)O)CC[C@]3(C)CC[C@]12C [UI-1590, celastrol]	–	88	0.724	–	–	Toxicity in vivo [3]: minor toxicity
CC(C)=CCC[C@]1(C)C=Cc2c(O)c3c(c(CC=C(C)C)c2O1)O[C@]12C(=C[C@@H]4C[C@H]1C(C)(C)O[C@@]2(C/C=C(/C)C(=O)O)C4=O)C3=O [UI-1907, gambogic acid]	–	51	16	weak inhibitors	weak inhibitors	–
CC(=O)Oc1c2c(c(CC=C(C)C)c3c1C(=O)C1=C[C@@H]4CC5C(C)(C)OC(C/C=C(\C)C(=O)O)(C4=O)[C@@]15O3)OC(C)(CCC=C(C)C)C=C2 (some centres unmarked) [UI-2034, acetyl-isogambogic acid]	181	–	–	weak inhibitors	weak inhibitors	–
